According to US5763194A, “Cell separation device” (Unisearch Limited, priority 1993, dated 1998):

Tested on: CD34+ cells
Assay: Separation of CD34+ cells from mobilised blood using shear fractionation and pre-treatment with chymopapain
Type: cell-based, human (patient)
From the text: Cells bound to the semi-permeable substrate of the present invention may be pre-treated with a cell-releasing agent prior to removal by shear stress. The proteolytic enzyme chymopapain has been used to assist the removal of CD34^+ cells bound to a hollow fibre apparatus of the present invention.
A mononuclear cell concentrate was collected from a patient undergoing peripheral stem cell mobilisation with cyclophosphamide and G-CSF.
A Cuprophan hollow-fibre module (binding area ^~ 500 cm^2) was derivatised with antiCD34 monoclonal antibody (clone 9e5) using the hydrazide method as described previously with the following change in protocl. Cuprophan was derivatised with 25% ethylene glycol diglycidyl ether for 2 hours at room temperature.
A total of 1.7×10^8 cells in 4 mls of phosphate buffered saline with 0.5% human Ig and 0.5% bovine serum albumin added was injected into the vertically aligned module using blind-ended filtration. Residual cells in the inlet tubing were flushed with a further 0.5 ml of buffer (blind-ended filtration). The entire loading process took less than 8 minutes. Cells were loaded at approximately 340,000 cells/cm^2.
For cell deposition within the fibre lumen, the module was rotated into the horizontal position. After 4 minutes of settling time, the module was rotated around its long axis over a 12 minute period (2 full revolutions).
For cell recovery the module was returned to the vertical position. The CD34 depleted cell population was recovered in successive 10 ml fractions by incrementing shear stress up to 100 dynes/cm (Fraction numbers 1-5).
Following this, attached cells were incubated with the proteolytic enzyme Chymopapain (DISCASE™) at 400 pKat/ml. The incubation period lasted 20 minutes. During this time released cells were collected at low shear stress (0.2 dynes/cm^2, Fraction 6). Shear fractionation was then used to further purify treated cells. 10 ml fractions were collected at shear stresses of 10, 50 and 100 dynes/cm2.

[1] = Fraction 6, chymopapain + 0.2 dynes/cm^2
[2] = Fraction 7, after chymopapain, 10 dynes/cm^2
[3] = Fraction 8, after chymopapain, 50 dynes/cm^2
[4] = Fraction 9, after chymopapain, 100 dynes/cm^2
[5] = Fraction 10, after chymopapain, 100 dynes/cm^2
[6] = Fraction 11, after chymopapain, ~1000 dynes/cm^2 (3% dextran T2000)

chymopapain: proteolytic enzyme Chymopapain (DISCASE™)
CD34+ incidence [1]: 93.1%
Number of CD34+ cells [1]: 640,000
Total number of cells [1]: 687,000
CD34+ incidence [2]: 86.1%
Number of CD34+ cells [2]: 1,770,000
Total number of cells [2]: 2,060,000
CD34+ incidence [3]: 1.91%
Number of CD34+ cells [3]: 45,100
Total number of cells [3]: 2,360,000
CD34+ incidence [4]: 1.19%
Number of CD34+ cells [4]: 12,400
Total number of cells [4]: 1,040,000
CD34+ incidence [5]: 0.54%
Number of CD34+ cells [5]: 3,060
Total number of cells [5]: 567,000
CD34+ incidence [6]: 0.31%
Number of CD34+ cells [6]: 2,050
Total number of cells [6]: 660,000
CD34 antigen expression of released cells (flow cytometry (BG12-PE), chymopapain released cells): 150-1600 channels
purity of fractions 6 and 7 (fractions 6 and 7): at least 90%
separation yield (CD34+ cells recovered/CD34+ cells input) (fractions 6 and 7 pooled): 53%
